Test results published in the supplement of paper PMC11061612.

Experiments:
Experiment in all cases: combination Emax (second highest fraction inhibited in the dose matrix, 72 h); higher = more inhibition; extreme values may be limits of the assay
[1] = test system: EBC-1 (Squamous Cell Lung Carcinoma)
Method in brief: (§1)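 After 24 hours at 37°C and 5% CO2 in 1536-well plates, cells in DMEM/F12 or RPMI plus 10% FBS received two-drug dose matrices for 72 hours. Viability came from CellTiter-Glo 2.0 luminescence and was scaled as inhibition, anchored at 0 by vehicle wells and at 1 by blank wells. Combination Emax is taken as the second-highest inhibition in the matrix, and Bliss excess as the observed combination effect less EA + EB − EA·EB, with EA and EB the single-agent effects.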

GOTO (Neuroblastoma) = test system: GOTO (Neuroblastoma)
Method in brief: as §1

IMR-5 (Neuroblastoma) = test system: IMR-5 (Neuroblastoma)
Method in brief: as §1

[2] = test system: KINGS-1 (Low Grade Glioma)
Method in brief: as §1

[3] = test system: KLE (Endometrial Carcinoma)
Method in brief: as §1

[4] = test system: KP-2 (Pancreatic Carcinoma)
Method in brief: as §1

[5] = test system: KU-19-19 (Bladder Carcinoma)
Method in brief: as §1

[6] = test system: KYSE-50 (Esophageal Squamous Cell Carcinoma)
Method in brief: as §1

[7] = test system: LC4-1 (B-Lymphoblastic Leukemia)
Method in brief: as §1

[8] = test system: LOU-NH91 (Squamous Cell Lung Carcinoma)
Method in brief: as §1

[9] = test system: MFE-319 (Endometrial Carcinoma)
Method in brief: as §1

[10] = test system: NCI-N87 (Gastric Carcinoma)
Method in brief: as §1

NH-12 (Neuroblastoma) = test system: NH-12 (Neuroblastoma)
Method in brief: as §1

[11] = test system: OVISE (Ovarian Carcinoma)
Method in brief: as §1

RPMI-7951 (Melanoma) = test system: RPMI-7951 (Melanoma)
Method in brief: as §1

[12] = test system: SCC-3 (B-Cell Non-Hodgkin's Lymphoma)
Method in brief: as §1

[13] = test system: SCC-9 (Oral Cavity Carcinoma)
Method in brief: as §1

[14] = test system: TGBC11TKB (Gastric Carcinoma)
Method in brief: as §1

U-87-MG (Glioblastoma) = test system: U-87-MG (Glioblastoma)
Method in brief: as §1

EW-13 (Ewing's Sarcoma) = test system: EW-13 (Ewing's Sarcoma)
Method in brief: as §1

What does the source list for `CN(C)CCCOc1ccc(-c2ccc3ncc4c(c3c2)n(C2CCOCC2)c(=O)n4C)cn1` [AZD0156] + O=C(c1cc(Cc2n[nH]c(=O)c3ccccc23)ccc1F)N1CCN(C(=O)C2CC2)CC1 [Olaparib] (first compound max 3 µM, partner max 3 µM)?
combination Emax [1]: 0.267; combination Emax (GOTO (Neuroblastoma)): 0.306; combination Emax (IMR-5 (Neuroblastoma)): 0.544; combination Emax [2]: 0.176; combination Emax [3]: 0.334; combination Emax [4]: 0.152; combination Emax [5]: 0.221; combination Emax [6]: 0.195; combination Emax [7]: 0.673; combination Emax [8]: 0.209; combination Emax [9]: 0.193; combination Emax [10]: 0.327; combination Emax (NH-12 (Neuroblastoma)): 0.177; combination Emax [11]: 0.306; combination Emax (RPMI-7951 (Melanoma)): 0.264; combination Emax [12]: 0.687; combination Emax [13]: 0.262; combination Emax [14]: 0.131; combination Emax (U-87-MG (Glioblastoma)): 0.297

How did the “combination Emax” value [1] turn out when `C=CCn1c(=O)c2cnc(Nc3ccc(N4CCN(C)CC4)cc3)nc2n1-c1cccc(C(C)(C)O)n1` [AZD1775] + C1CN(CCC1(C(=O)N[C@@H](CCO)C2=CC=C(C=C2)Cl)N)C3=NC=NC4=C3C=CN4 [Capivasertib] (first compound max 3 µM, partner max 3 µM) was run?
Its value is 0.7.

And the “combination Emax” value (GOTO (Neuroblastoma))?
Its value is 0.712.

And the “combination Emax” value (IMR-5 (Neuroblastoma))?
Its value is 1.

And the “combination Emax” value [2]?
Its value is 0.473.

What about the “combination Emax” value [3] of the same molecule?
Its value is 0.619.

What about the “combination Emax” value [4] of the same molecule?
Its value is 0.498.

What about the “combination Emax” value [5] of the same molecule?
Its value is 0.856.

What about the “combination Emax” value [6] of the same molecule?
The value was 0.771.

What about the “combination Emax” value [7] of the same molecule?
Its value is 0.884.

What about the “combination Emax” value [8] of the same molecule?
Its value is 0.727.

And the “combination Emax” value [9]?
Its value is 0.858.

What about the “combination Emax” value [10] of the same molecule?
The value was 0.689.

What about the “combination Emax” value (NH-12 (Neuroblastoma)) of the same molecule?
Its value is 0.852.

And the “combination Emax” value [11]?
The value was 0.651.

What about the “combination Emax” value (RPMI-7951 (Melanoma)) of the same molecule?
The value was 0.856.

And the “combination Emax” value [12]?
Its value is 0.977.

What about the “combination Emax” value [13] of the same molecule?
Its value is 0.638.

What about the “combination Emax” value [14] of the same molecule?
The value was 0.939.

What about the “combination Emax” value (U-87-MG (Glioblastoma)) of the same molecule?
Its value is 0.467.

Which results are given for `COc1nnc2ccc(N3CCC(c4ccc(OCCN5CCN(C)C(=O)[C@H]5C)cc4)CC3)nn12` [AZD5153] + CN(CC[C@H](CSC1=CC=CC=C1)NC2=C(C=C(C=C2)S(=O)(=O)NC(=O)C3=CC=C(C=C3)N4CCC(CC4)[C@H](C5=CC=CC=C5C6=CC=C(C=C6)Cl)O)S(=O)(=O)C(F)(F)F)CCO [AZD4320] (first compound max 1 µM, 7x7, partner max 1 µM)?
combination Emax [1]: 1; combination Emax (EW-13 (Ewing's Sarcoma)): 0.818; combination Emax (GOTO (Neuroblastoma)): 0.858; combination Emax (IMR-5 (Neuroblastoma)): 0.984; combination Emax [3]: 0.792; combination Emax [4]: 0.945; combination Emax [5]: 0.755; combination Emax [6]: 0.732; combination Emax [8]: 0.781; combination Emax [9]: 0.476; combination Emax (NH-12 (Neuroblastoma)): 0.91; combination Emax [11]: 0.9; combination Emax (RPMI-7951 (Melanoma)): 0.647; combination Emax [12]: 0.93; combination Emax (U-87-MG (Glioblastoma)): 0.625

How did the “combination Emax” value [1] turn out when `Cc1c2c(nn1C)CSCc1cc(n(C)n1)CSc1cc(c3ccccc3c1)OCCCc1c(C(=O)O)n(C)c3c-2c(Cl)ccc13` [AZD5991] + C=CCn1c(=O)c2cnc(Nc3ccc(N4CCN(C)CC4)cc3)nc2n1-c1cccc(C(C)(C)O)n1 [AZD1775] (first compound max 1 µM, partner max 1 µM) was run?
Its value is 0.299.

And the “combination Emax” value (EW-13 (Ewing's Sarcoma))?
The value was 0.388.

And the “combination Emax” value (GOTO (Neuroblastoma))?
Its value is 0.834.

And the “combination Emax” value (IMR-5 (Neuroblastoma))?
The value was 1.

And the “combination Emax” value [2]?
Its value is 0.334.

What about the “combination Emax” value [3] of the same molecule?
The value was 0.538.

And the “combination Emax” value [5]?
The value was 0.891.

What about the “combination Emax” value [6] of the same molecule?
Its value is 0.618.

And the “combination Emax” value [7]?
Its value is 0.986.

And the “combination Emax” value [8]?
Its value is 0.556.

And the “combination Emax” value [9]?
The value was 0.913.

What about the “combination Emax” value [10] of the same molecule?
The value was 0.727.

And the “combination Emax” value (NH-12 (Neuroblastoma))?
The value was 0.918.

And the “combination Emax” value [11]?
Its value is 0.633.

What about the “combination Emax” value (RPMI-7951 (Melanoma)) of the same molecule?
The value was 0.957.

What about the “combination Emax” value [12] of the same molecule?
Its value is 0.85.

And the “combination Emax” value [13]?
Its value is 0.331.

What about the “combination Emax” value [14] of the same molecule?
Its value is 0.922.

And the “combination Emax” value (U-87-MG (Glioblastoma))?
Its value is 0.457.

For `Cc1cc2ncnn2cc1Nc1ncc2c(n1)n(C1CCOCC1)c(=O)n2C` [AZD7648] + CN(C)CCCOc1ccc(-c2ccc3ncc4c(c3c2)n(C2CCOCC2)c(=O)n4C)cn1 [AZD0156] (first compound max 10 µM, 7x7, partner max 1 µM), which “combination Emax” value [1] is on record?
Its value is 0.218.

And the “combination Emax” value (EW-13 (Ewing's Sarcoma))?
The value was 0.325.

And the “combination Emax” value (GOTO (Neuroblastoma))?
Its value is 0.163.

What about the “combination Emax” value (IMR-5 (Neuroblastoma)) of the same molecule?
The value was 0.239.

And the “combination Emax” value [2]?
Its value is 0.3.

And the “combination Emax” value [3]?
The value was 0.36.

What about the “combination Emax” value [4] of the same molecule?
Its value is 0.0295.

What about the “combination Emax” value [5] of the same molecule?
Its value is 0.212.

What about the “combination Emax” value [6] of the same molecule?
Its value is 0.164.

And the “combination Emax” value [7]?
Its value is 0.42.

And the “combination Emax” value [8]?
The value was 0.279.

What about the “combination Emax” value [9] of the same molecule?
The value was 0.311.

What about the “combination Emax” value [10] of the same molecule?
Its value is 0.477.

And the “combination Emax” value (NH-12 (Neuroblastoma))?
The value was 0.153.

And the “combination Emax” value [11]?
Its value is 0.366.

And the “combination Emax” value (RPMI-7951 (Melanoma))?
Its value is 0.396.

What about the “combination Emax” value [12] of the same molecule?
Its value is 0.299.

And the “combination Emax” value [13]?
Its value is 0.24.

And the “combination Emax” value [14]?
Its value is 0.247.

Which results are given for `CN(CCO)CC[C@H](CSc1ccccc1)Nc1ccc(S(=O)(=O)NC(=O)c2ccc(N3CCC([C@@H](O)c4ccccc4-c4ccc(Cl)cc4)CC3)cc2)cc1S(=O)(=O)C(F)(F)F` [AZD4320] + C1CN(CCC1(C(=O)N[C@@H](CCO)C2=CC=C(C=C2)Cl)N)C3=NC=NC4=C3C=CN4 [Capivasertib] (first compound max 1 µM, 7x7, partner max 3 µM)?
combination Emax [1]: 0.935; combination Emax (EW-13 (Ewing's Sarcoma)): 0.677; combination Emax (GOTO (Neuroblastoma)): 0.378; combination Emax (IMR-5 (Neuroblastoma)): 0.788; combination Emax [2]: 0.49; combination Emax [3]: 0.206; combination Emax [4]: 0.842; combination Emax [5]: 0.174; combination Emax [6]: 0.0686; combination Emax [7]: 1; combination Emax [8]: 0.494; combination Emax [10]: 0.571; combination Emax (NH-12 (Neuroblastoma)): 0.886; combination Emax [11]: 0.89; combination Emax (RPMI-7951 (Melanoma)): 0.54; combination Emax [12]: 0.257; combination Emax [13]: 0.21; combination Emax [14]: 0.182; combination Emax (U-87-MG (Glioblastoma)): 0.311

With `CCN(CCO)CCCOc1ccc2c(Nc3cc(CC(=O)Nc4cccc(F)c4)[nH]n3)ncnc2c1` [AZD2811] + C=CCn1c(=O)c2cnc(Nc3ccc(N4CCN(C)CC4)cc3)nc2n1-c1cccc(C(C)(C)O)n1 [AZD1775] (first compound max 1 µM, partner max 1 µM) as the molecule, how does the “combination Emax” value [1] read?
Its value is 0.24.

And the “combination Emax” value (EW-13 (Ewing's Sarcoma))?
Its value is 0.355.

And the “combination Emax” value (GOTO (Neuroblastoma))?
Its value is 0.883.

What about the “combination Emax” value (IMR-5 (Neuroblastoma)) of the same molecule?
The value was 0.998.

And the “combination Emax” value [2]?
Its value is 0.276.

What about the “combination Emax” value [3] of the same molecule?
Its value is 0.564.

What about the “combination Emax” value [4] of the same molecule?
The value was 0.206.

And the “combination Emax” value [5]?
Its value is 0.765.

And the “combination Emax” value [6]?
Its value is 0.301.

And the “combination Emax” value [7]?
The value was 0.896.

What about the “combination Emax” value [8] of the same molecule?
The value was 0.383.

What about the “combination Emax” value [9] of the same molecule?
The value was 0.578.

What about the “combination Emax” value [10] of the same molecule?
The value was 0.66.

And the “combination Emax” value (NH-12 (Neuroblastoma))?
The value was 0.877.

And the “combination Emax” value [11]?
The value was 0.571.

And the “combination Emax” value (RPMI-7951 (Melanoma))?
The value was 0.697.

What about the “combination Emax” value [12] of the same molecule?
The value was 0.923.

And the “combination Emax” value [13]?
Its value is 0.172.

And the “combination Emax” value [14]?
The value was 0.818.
